Experimental data reported in ChEMBL document CHEMBL3045457, “Synthesis and insecticidal activity of N-substituted (1,3-thiazole)alkyl sulfoximine derivatives” (2008).

test system: Myzus persicae; experiment: Insecticidal activity against Myzus persicae (green peach aphid) in horsebean shoot assessed as mortality at 10 mg/l at 25 +/-1 degC treated for 2 secs measured after 16 hr; type: functional

| SMILES | mortality at 10 µg/mL [%] |
| --- | --- |
| CS(=O)(Cc1ccc(Cl)nc1)=NC#N (configuration not stated) | 100 |
| CCOc1nc(C(F)(F)F)c(CS(C)(=O)=NC#N)s1 (configuration not stated) | 68 |
| Cc1nc(Cl)sc1CS(C)(=O)=NC#N (configuration not stated) | 0 |
| CS(=O)(Cc1cnc(Cl)s1)=NC#N (configuration not stated) | 75 |
| CS(=O)(Cc1cnc(Br)s1)=NC#N (configuration not stated) | 93 |
| CS(=O)(Cc1sc(Cl)nc1C(F)(F)F)=NC#N (configuration not stated) | 100 |
| CS(=O)(Cc1sc(Br)nc1C(F)(F)F)=NC#N (configuration not stated) | 48 |
